According to patent US20250257055A1, “TERTIARY AMIDE DERIVATIVES SUBSTITUTED WITH 4-MEMBERED RING STRUCTURE” (Sumitomo Pharma Co., Ltd., priority 2024, published 2025):
Where two headings read alike, the source gives them in different places.

What was measured:
[1] = Membrane permeability test (PAMPA); assay type: in vitro ADME
Outline: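 Donor compartment held compound in system solution over a GIT Lipid-0 membrane, with sink buffer on the acceptor side; incubation 4 h at 37° C. Donor and acceptor concentrations were read by UV (190-500 nm), or by LC-MS for weakly absorbing compounds, and Pe (10^−6 cm/sec) was calculated.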

hDAT = hDAT (Homo sapiens (Human), UniProt Q01959); assay: Dopamine receptor inhibitory activity evaluation (binding assay, CHO-S/hDAT membranes); conditions: CHO-S/hDAT membrane preparation
Sequence of hDAT (Q01959 whole entry): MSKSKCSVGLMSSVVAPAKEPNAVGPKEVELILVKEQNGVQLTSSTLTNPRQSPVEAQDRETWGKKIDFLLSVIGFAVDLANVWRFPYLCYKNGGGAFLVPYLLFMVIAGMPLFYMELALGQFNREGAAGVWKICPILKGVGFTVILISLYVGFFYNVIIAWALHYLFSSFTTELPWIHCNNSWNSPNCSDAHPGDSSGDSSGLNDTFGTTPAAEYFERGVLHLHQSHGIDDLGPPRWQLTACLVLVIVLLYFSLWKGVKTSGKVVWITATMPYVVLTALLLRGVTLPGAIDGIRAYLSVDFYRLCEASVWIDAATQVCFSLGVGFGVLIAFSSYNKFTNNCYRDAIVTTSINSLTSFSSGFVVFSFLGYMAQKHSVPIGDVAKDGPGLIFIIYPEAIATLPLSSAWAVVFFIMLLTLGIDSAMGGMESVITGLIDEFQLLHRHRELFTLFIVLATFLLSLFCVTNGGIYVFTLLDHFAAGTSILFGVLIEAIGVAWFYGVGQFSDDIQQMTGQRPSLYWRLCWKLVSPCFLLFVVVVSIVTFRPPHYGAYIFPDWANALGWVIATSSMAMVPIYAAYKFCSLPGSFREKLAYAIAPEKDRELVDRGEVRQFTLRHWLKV
Experimental: The binding evaluation assay was outsourced to Eurofins. Specifically, CHO-S/hDAT cells were homogenized in an incubation buffer consisting of 50 mmol/L Tris-HCl, pH 7.4, 100 mmol/L NaCl, 1 μmol/L Leupeptin, and 10 μmol/L PMSF. The membrane pellet obtained by centrifugation was resuspended in the incubation buffer to prepare a membrane preparation. The test compound (1-10 μmol/L DMSO solution), the membrane preparation, and 0.15 nmol/L […] were mixed and incubated at 4° C. for 180 minutes. The cell membrane-[^125I]RTI-55 complex was bound to a GF/B filter mat by vacuum filtration and washed with 50 mmol/L Tris-HCl, pH 7.4. The effect on the receptor was assessed by measuring radioactivity using a scintillation counter.

recombinant p300 = recombinant p300 (Homo sapiens (Human), UniProt Q09472); assay: HAT activity inhibition experiment (SensoLyte HAT(p300) Assay Kit); assay type: biochemical; conditions: recombinant p300, histone H3 peptide, acetyl CoA
Sequence of recombinant p300 (Q09472 whole entry): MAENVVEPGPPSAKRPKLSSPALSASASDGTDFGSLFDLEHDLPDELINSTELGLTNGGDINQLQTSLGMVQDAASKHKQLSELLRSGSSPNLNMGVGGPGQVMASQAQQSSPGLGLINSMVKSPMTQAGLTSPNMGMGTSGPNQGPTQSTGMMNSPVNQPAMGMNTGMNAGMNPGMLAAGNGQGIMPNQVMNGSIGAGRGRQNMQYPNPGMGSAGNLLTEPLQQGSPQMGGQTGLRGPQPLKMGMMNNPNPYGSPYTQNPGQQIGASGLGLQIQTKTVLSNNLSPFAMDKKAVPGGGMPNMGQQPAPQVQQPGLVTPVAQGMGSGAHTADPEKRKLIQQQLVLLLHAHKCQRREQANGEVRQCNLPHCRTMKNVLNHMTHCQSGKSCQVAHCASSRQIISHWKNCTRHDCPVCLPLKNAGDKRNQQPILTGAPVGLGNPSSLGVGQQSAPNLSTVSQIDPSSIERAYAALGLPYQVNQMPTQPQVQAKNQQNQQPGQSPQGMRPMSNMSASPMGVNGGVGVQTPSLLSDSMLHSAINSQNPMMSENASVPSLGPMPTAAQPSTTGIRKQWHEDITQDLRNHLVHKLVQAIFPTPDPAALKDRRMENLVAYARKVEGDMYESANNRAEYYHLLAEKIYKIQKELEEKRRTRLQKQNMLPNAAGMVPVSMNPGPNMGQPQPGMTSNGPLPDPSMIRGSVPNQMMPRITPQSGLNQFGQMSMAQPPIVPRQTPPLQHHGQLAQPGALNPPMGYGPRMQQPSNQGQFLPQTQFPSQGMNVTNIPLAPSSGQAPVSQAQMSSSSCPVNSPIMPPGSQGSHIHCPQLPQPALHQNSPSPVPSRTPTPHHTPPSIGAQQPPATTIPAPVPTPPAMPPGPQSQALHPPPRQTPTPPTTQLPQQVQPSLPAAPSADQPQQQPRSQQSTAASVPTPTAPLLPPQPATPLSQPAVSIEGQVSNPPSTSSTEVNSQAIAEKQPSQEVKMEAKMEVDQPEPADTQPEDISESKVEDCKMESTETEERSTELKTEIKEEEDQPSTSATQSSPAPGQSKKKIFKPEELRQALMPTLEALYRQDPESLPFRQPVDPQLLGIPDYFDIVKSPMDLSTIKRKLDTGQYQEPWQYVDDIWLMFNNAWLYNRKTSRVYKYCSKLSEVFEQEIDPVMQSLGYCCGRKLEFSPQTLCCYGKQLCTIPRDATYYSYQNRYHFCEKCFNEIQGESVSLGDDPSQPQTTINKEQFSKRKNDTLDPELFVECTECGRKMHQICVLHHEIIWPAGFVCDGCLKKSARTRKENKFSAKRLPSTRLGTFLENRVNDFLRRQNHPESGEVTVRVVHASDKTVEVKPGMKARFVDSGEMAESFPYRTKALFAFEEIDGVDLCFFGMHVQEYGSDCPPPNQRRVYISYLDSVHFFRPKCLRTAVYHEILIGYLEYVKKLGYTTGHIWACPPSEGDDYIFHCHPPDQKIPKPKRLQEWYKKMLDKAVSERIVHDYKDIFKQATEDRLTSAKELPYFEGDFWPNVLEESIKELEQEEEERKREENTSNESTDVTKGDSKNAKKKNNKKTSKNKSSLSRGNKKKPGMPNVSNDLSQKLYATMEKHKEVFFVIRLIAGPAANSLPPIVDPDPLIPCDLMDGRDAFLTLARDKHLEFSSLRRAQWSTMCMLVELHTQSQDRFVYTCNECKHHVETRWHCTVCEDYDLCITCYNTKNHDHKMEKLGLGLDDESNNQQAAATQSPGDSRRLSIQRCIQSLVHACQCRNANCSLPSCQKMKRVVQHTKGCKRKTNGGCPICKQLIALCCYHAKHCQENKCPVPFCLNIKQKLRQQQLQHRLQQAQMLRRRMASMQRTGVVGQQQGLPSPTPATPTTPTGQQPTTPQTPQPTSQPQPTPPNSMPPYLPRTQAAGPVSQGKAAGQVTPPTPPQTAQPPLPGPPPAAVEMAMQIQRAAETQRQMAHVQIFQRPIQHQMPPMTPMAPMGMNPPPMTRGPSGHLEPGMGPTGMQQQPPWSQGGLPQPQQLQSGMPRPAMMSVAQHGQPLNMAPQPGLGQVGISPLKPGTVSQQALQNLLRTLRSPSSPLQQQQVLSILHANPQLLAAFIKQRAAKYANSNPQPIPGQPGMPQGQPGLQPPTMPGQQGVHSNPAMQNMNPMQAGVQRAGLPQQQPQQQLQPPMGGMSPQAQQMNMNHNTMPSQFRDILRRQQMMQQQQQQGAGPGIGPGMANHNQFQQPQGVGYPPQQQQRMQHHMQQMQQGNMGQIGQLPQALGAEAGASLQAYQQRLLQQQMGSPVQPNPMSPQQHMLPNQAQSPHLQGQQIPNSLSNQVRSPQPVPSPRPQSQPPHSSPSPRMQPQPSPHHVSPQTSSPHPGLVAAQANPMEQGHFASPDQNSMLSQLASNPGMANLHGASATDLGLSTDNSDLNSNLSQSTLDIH
Outline: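 Recombinant human p300 preincubated with compound 10 min at room temperature, then acetyl-CoA and histone H3 peptide added and reacted 30 min at 37 °C. After stop, developer added for 30 min at room temperature in the dark; fluorescence read at Ex 389/Em 513 nm.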

G-401 cells = assay: Cell proliferation inhibition experiment using G-401 cells; assay type: cell-based; conditions: Homo sapiens, 72 h, cultured for 3 days, CellTiter-Glo
Outline: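 Malignant rhabdoid tumor-derived cells, grown in McCoy's 5A with 10% FBS, were seeded at 500 cells/well and dosed one day later (final DMSO 0.1%). After 3 days of culture at 37° C, viability was read by CellTiter-Glo luminescence.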

[2] = pH 5.0, 37° C., read-out: pH 5.0 Pe
[3] = pH 7.4, 37° C., read-out: pH 7.4 Pe

O=C1N[C@]2(C[C@@H](F)c3cc(-c4cnn(C5CN(C6COC6)C5)c4)ccc32)C(=O)N1CC(=O)N(Cc1ccc(F)cn1)C1(C(F)(F)F)COC1 [Example 7, 2-[(1′S,3′R)-3′-fluoro-5′-{1-[1-(oxetan-3-yl)azetidin-3-yl]-1H-pyrazol-4-yl}-2,5-dioxo-2′,3′-dihydrospiro[imidazolidine-4,1′-inden]-1-yl]-N-[(5-fluoropyridin-2-yl)methyl]-N-[3-(trifluoromethyl)oxetan-3-yl]acetamide] gave a Papp at 4 h [1, 2] of 3 ×10⁻⁶ cm/s, a Papp at 4 h [1, 3] of 5.1 ×10⁻⁶ cm/s and an inhibition at 10 µM (hDAT) of 7%. For the same compound, the IC50 (recombinant p300) was 0.9 nM and the IC50 (G-401 cells) was 44 nM.
CN1CC(N(Cc2ccc(F)cc2)C(=O)CN2C(=O)N[C@]3(C[C@@H](F)c4cc(-c5cnn(C)c5)ccc43)C2=O)(C(F)(F)F)C1 [Example 10, 2-[(1′S,3′R)-3′-fluoro-5′-(1-methyl-1H-pyrazol-4-yl)-2,5-dioxo-2′,3′-dihydrospiro[imidazolidine-4,1′-inden]-1-yl]-N-[(4-fluorophenyl)methyl]-N-[1-methyl-3-(trifluoromethyl)azetidin-3-yl]acetamide] showed a Papp at 4 h [1, 2] of 23.9 ×10⁻⁶ cm/s, a Papp at 4 h [1, 3] of 28.6 ×10⁻⁶ cm/s and an inhibition at 10 µM (hDAT) of 6%. For the same compound, the IC50 (recombinant p300) was 0.4 nM and the IC50 (G-401 cells) was 10 nM.
In the case of CN1CC(N(Cc2ccc(F)cn2)C(=O)CN2C(=O)N[C@]3(C[C@@H](F)c4cc(-c5cnn(C)c5)ccc43)C2=O)(C(F)(F)F)C1 [Example 20, 2-[(1′S,3′R)-3′-fluoro-5′-(1-methyl-1H-pyrazol-4-yl)-2,5-dioxo-2′,3′-dihydrospiro[imidazolidine-4,1′-inden]-1-yl]-N-[(5-fluoropyridin-2-yl)methyl]-N-[1-methyl-3-(trifluoromethyl)azetidin-3-yl]acetamide], the Papp at 4 h [1, 2] is reported as 7.8 ×10⁻⁶ cm/s, the Papp at 4 h [1, 3] is reported as 21.9 ×10⁻⁶ cm/s and the inhibition at 10 µM (hDAT) is reported as 46%. For the same compound, the IC50 (recombinant p300) was 1.7 nM and the IC50 (G-401 cells) was 36 nM.
O=C1N[C@]2(C[C@@H](F)c3cc(-c4cnn(C5CCN(C6COC6)CC5)c4)ccc32)C(=O)N1CC(=O)N(Cc1ccc(F)cn1)C1(C(F)(F)F)COC1 [Example 23, 2-[(1′S,3′R)-3′-fluoro-5′-{1-[1-(oxetan-3-yl)piperidin-4-yl]-1H-pyrazol-4-yl}-2,5-dioxo-2′,3′-dihydrospiro[imidazolidine-4,1′-inden]-1-yl]-N-[(5-fluoropyridin-2-yl)methyl]-N-[3-(trifluoromethyl)oxetan-3-yl]acetamide] showed a Papp at 4 h [1, 2] of 3.2 ×10⁻⁶ cm/s, a Papp at 4 h [1, 3] of 7 ×10⁻⁶ cm/s and an inhibition at 10 µM (hDAT) of 7%. For the same compound, the IC50 (recombinant p300) was 9 nM and the IC50 (G-401 cells) was 82 nM.
Compound CN1CC(N(Cc2ccc(F)cn2)C(=O)CN2C(=O)N[C@]3(C[C@@H](F)c4cc(-c5cnn(C6COC6)c5)ccc43)C2=O)(C(F)(F)F)C1 [Example 24, 2-{(1′S,3′R)-3′-fluoro-5′-[1-(oxetan-3-yl)-1H-pyrazol-4-yl]-2,5-dioxo-2′,3′-dihydrospiro[imidazolidine-4,1′-inden]-1-yl}-N-[(5-fluoropyridin-2-yl)methyl]-N-[1-methyl-3-(trifluoromethyl)azetidin-3-yl]acetamide] has a Papp at 4 h [1, 2] of 1.6 ×10⁻⁶ cm/s, a Papp at 4 h [1, 3] of 8.2 ×10⁻⁶ cm/s and an inhibition at 10 µM (hDAT) of 6%. For the same compound, the IC50 (recombinant p300) was 9.8 nM and the IC50 (G-401 cells) was 36 nM.
